From patent US6060304A, “Method of producing conjugated fatty acids” (Wisconsin Alumni Research Foundation, priority 1998, dated 2000)

Experiments:
[1] = test system: linoleate isomerase of L. reuteri PYR8; conditions: for Rate of converting: 36-hour PYR8 cells
Method: Fatty acids were extracted with chloroform:methanol (2:1) and 4% KCl. Hexadecanoic acid (HDA) was added as an internal standard. The extraction mix was centrifuged at 2000 g for 5 minutes, then the chloroform fraction containing the fatty acids (bottom fraction) was removed and dried down by nitrogen gas. The fatty acids were suspended in 4% HCl in anhydrous methanol, and were methylated in a 60° C. water bath for 20 minutes. Finally, drops of double distilled water (DDW) were added to the methylation tube and hexane was used to re-extract the fatty acid. After washing twice with DDW and dehydrating by sodium sulfate, 1-2 μl of the hexane fraction was injected into a model 5890 series II gas chromatograph fitted with a model 3396A integrator (Hewlett-Packard Company, Avondale, Pa.) for fatty acid analysis. Fatty acid peaks were separated with a fused silica capillary column, 60 m by […] I.D. with a 0.25 μm film thickness (Supelco Park, Bellefonte, Pa.).
Thirty-six-hour cultures were diluted in 0.1M Tris-HCl (pH 8.55) buffer to 1:10, 1:15, 1:20 (w/v). Five ml of each suspension were reacted with 2.0 mg of linoleic acid for 1, 2, or 3 hours at 12° C. At 1:15, five ml were incubated with 1.0 mg, 1.5 mg, 2.0 mg and 3.0 mg of alpha-linolenic acid for 1 hour, or with 2.0 mg of gamma-linolenic acid for 1, 2, 3, 4, or 24 hours at 4° C. Fatty acids were extracted with chloroform:methanol and assayed by the GC method.

[2] = test system: linoleate isomerase of L. reuteri PYR8; assay: Substrates tested with cells of L. reuteri PYR8, product analysed by GC; assay type: biochemical, Lactobacillus reuteri PYR8 (ATCC 55739); conditions: for Major Products (putative) of the linoleate isomerase: 0.2 mg substrate reacted with 20 mg PYR8 cells, GC; for Activity of the organism / consumption relative to other substrates: effect of extra double bonds at position 6 and/or 15; for Activity as substrate of the Lactobacillus: unsaturated fatty acids lacking double bonds at both positions 9 and 12
Method: ^a Each substrate (0.2 mg) was reacted with the cells (20 mg) of L.
reuteri PYR8, and product was analyzed by GC, as described in methods.
Fatty acids were extracted with chloroform:methanol (2:1) and 4% KCl. Hexadecanoic acid (HDA) was added as an internal standard. […] Fatty acid peaks were separated with a fused silica capillary column, 60 m by […] I.D. with a 0.25 μm film thickness (Supelco Park, Bellefonte, Pa.).

mammary cancer = conditions: rodents; cited from earlier work
[3] = chicks, mice and rats; cited from earlier work
[4] = test system: epidermal carcinogenesis and forestomach neoplasia; conditions: mice; cited from earlier work
[5] = test system: carcinogen-induced rat mammary tumors; conditions: cited from earlier work
atherosclerosis = conditions: rabbits and hamsters; cited from earlier work
[6] = mouse, rat and chick models; cited from earlier work
[7] = rabbits fed an atherogenic diet; cited from earlier work

Molecule	Rate of converting [1]	Major Products (putative) of the linoleate isomerase [2]	Activity as substrate of the Lactobacillus [2]	further results
CCCCC/C=C\C/C=C\C/C=C\CCCCC(=O)O [Gamma-linolenic acid]	less than 0.25 mg/hour/gram cells	cis6, cis9, trans11		Conversion to cis-6, cis-9, trans-11 isomer in 24 hours ([1]; dilution 1:15, 2.0 mg substrate, 4° C.): unable to convert; Activity of the organism / consumption relative to other substrates [2]: reduced
CCCCC/C=C\C/C=C\CCCCCCCC(=O)O [Linoleic acid]	3.2 mg/hour/gram cells	cis9, trans11 isomer		Effect on mammary cancer (mammary cancer): associated with enhancing mammary cancer
CCCCC/C=C\C/C=C\C/C=C\C/C=C\CCCC(=O)O [Arachidonic acid]		None	Inactive	
CC/C=C\C/C=C\C/C=C\CCCCCCCC(=O)O [Alpha-linolenic acid]	8.0 mg/hour/gram cells	cis9, trans11, cis15		Amount of substrate converted in one hour ([1]; dilution 1:15, five ml, 4° C.): 2.5 mg; Activity of the organism / consumption relative to other substrates [2]: promoted
Octadecanoic acid		None	Inactive	
Conjugated linoleic acid [CLA]				Prevention of adverse effects caused by immune stimulation [3]: can prevent adverse effects; Inhibition of epidermal carcinogenesis and forestomach neoplasia [4]: effective inhibitor; Inhibition of carcinogen-induced mammary tumors [5]: effective inhibitor; Inhibition of atherosclerosis (atherosclerosis): inhibits atherosclerosis; Body fat [6]: reduces body fat; Ratio of LDL-cholesterol to HDL-cholesterol [7]: can decrease
CCCCCCCC/C=C\CCCCCCCC(=O)O [Oleic acid]		None	Inactive	
